The values below come from patent US20190059368A1, “3,5-DIMETHOXYSTILBENE ANALOGS AND USES THEREOF” (The United States of America, as represented by the …, priority 2017, published 2019).

Assay [1] deals with Colletotrichum acutatum. Description: Direct bioautography, antifungal. To be noted: 2 mM, 4 μl spotted (2 μl of the positive controls), average of 2 assays; for zone of inhibition at 2000 µM: Colletotrichum acutatum, read-out: zones of inhibition. It counts as cell-based. The protocol:
(§1) The analogs were tested for activity against Colletotrichum acutatum SIMMONDS, C. fragariae BROOKS, and C. gloeosporioides (PENZ) PENZ & SACC. in Penz., using a direct bioautography method as previously described by Tabanca et al. (Nat. Prod. Commun. 2008, 3, 1073) and Wang, et al. (J. Agric. Food Chem. 2013, 61, 4551). Technical grade commercial fungicide standards benomyl, cyprodinil, azoxystrobin, and captan were used at 0.9-1.61 μg/μl concentrations in 95% EtOH. After sample application, each TLC plate was subsequently sprayed with a spore suspension (3.0×10^5 spores/ml) of the fungus of interest and incubated in a moisture chamber for 4 days at 26° C. with a 12 hour photoperiod. Clear zones of fungal growth inhibition on the TLC plate indicated the presence of antifungal constituents in each extract or pure compound. The test compounds were prepared at 2 mM soln. in 95% EtOH, and 4 μl were spotted on the plates (2 μl of the positive controls).

In assay [2] the test system is C. fragariae. Put plainly: Direct bioautography, antifungal. It counts as cell-based, Colletotrichum fragariae. To be noted: 2 mM, 4 μl spotted (2 μl of the positive controls), average of 2 assays; for zone of inhibition at 2000 µM: Colletotrichum fragariae, read-out: zones of inhibition. The protocol: as §1
The subject of assay [3] is C. gloeosporioides. Description: Direct bioautography, antifungal. It counts as cell-based, Colletotrichum gloeosporioides. To be noted: 2 mM, 4 μl spotted (2 μl of the positive controls), average of 2 assays; for zone of inhibition at 2000 µM: Colletotrichum gloeosporioides, read-out: zones of inhibition. The procedure: as §1
The test system of assay [4] is Meloidogyne incognita eggs. Put plainly: M. incognita egg immersion assay (hatch and mobility of hatched J2). It counts as in vivo. The procedure: (§2) Two types of assays were used to investigate activity against M. incognita: i) eggs were immersed in solutions of the test compounds, and ii) second-stage juveniles (J2) previously hatched from eggs were immersed in the test solutions. These assays were conducted with procedures similar to those in Meyer, et al. (J. Nematol. 2006, 38, 333). M. incognita race 1 (originally isolated in 2013 from a field in Maryland) was grown in the greenhouse on pepper (Capsicum annuum L.) cultivar PA-136. Egg masses were hand-picked from plant roots, rinsed three times with sterile distilled H2O, and agitated in 0.6% NaClO for 3.5 minutes to separate and surface-sterilize eggs. The eggs were rinsed in sterile distilled H2O and stored overnight at 4° C. before use in egg immersion assays. To collect J2 for direct immersion into the test compounds, sterilized eggs were placed into a hatching chamber made with a Spectra/Mesh Nylon Filter (openings 25 μm in diameter; Spectrum Laboratories Inc., Rancho Dominguez, Calif., USA) in an autoclaved dish. J2 that passed through the filter within 3 days were used immediately for assays.
(§3) The assays were conducted in 96-well polystyrene plates. For the assays with immersed eggs, each well received approximately 50 eggs in 35 μl of sterile deionized water (SDW). For assays with previously hatched J2, a suspension of approximately 50 J2 in 35 μl of SDW was placed into each well. Each well then received 165 μl of treatment or control. The solvent used to dissolve the test chemicals was a 1:1:1 mixture referred to herein as CTD: equal parts Cremophor® EL Castor Oil (BASF Corporation, Vandalia, Ill., USA), Tween 80® (Sigma-Aldrich, St. Louis, Mo., USA), and DMSO (Sigma-Aldrich). A high and low rate of each compound was tested. After addition to the nematode suspensions in the wells, the low and high rates were 83.3 and 166.7 μg/ml of each test compound, respectively, dissolved in 0.5% and 1.0% of each of the three combined solvents. Controls were CTD equivalent to the low and high rates, and SDW. Because of the large number of treatments, the test compounds were divided into two groups for the egg immersion assays. The compounds tested in the egg immersion Assay 1 were 3, 6a, 6e, 6f, 6g, 6n, 7a, 7c, 7e, 7f, 7n, 11, 12, 16, and 17. The compounds tested in the egg immersion Assay 2 were 6b, 6h, 6i, 6j, 6k, 6l , 7b, 7g, 7h, 7i, 7j, 7k, 7l, and 7m (data not shown). Test compounds used for assays with previously hatched J2 were selected based on results with the egg assays. The five compounds tested were 6b, 6f, 6g, 6i, and 7k, high and low rates.
Each polystyrene culture plate was covered with a plastic adhesive sheet (Excel Scientific, Inc., Victorville, Calif., USA) and incubated at 25° C. Ten wells (water controls) or five wells (all other treatments) were used per treatment in each assay. In egg immersion assays, total numbers of hatched J2, and numbers of mobile and immobile J2, were counted after 2 and 7 days incubation in the test compounds. In the first assay with previously hatched J2, the numbers of mobile and immobile J2 were counted after 1 and 2 days incubation, the treatments removed and replaced with a SDW rinse, and 2 days later the mobile vs. immobile J2 counted again. In assays with 6g and 7k, high rates and counts were made on Days 1, 2, 4, and 6, without a SDW rinse.
Data from the M. incognita assays were analyzed with the statistical package JMP 11.2.0 (SAS Institute, Cary, N.C., USA). Differences among numbers of hatched J2 in each treatment, and among percentage of mobile J2 per treatment (number mobile J2/total J2×100), were determined by the ANOVA, and means were compared using Tukey Kramer's adjustment for multiple comparisons (P<0.05). For percent mobile J2 on Day 2 in egg immersion Assays 1 and 2, and Day 4 with the five compounds in the J2 immersion assay, data were log10 (x+1)-transformed before analysis. Data presented are nontransformed means.

In assay [5] the test system is Meloidogyne incognita second-stage juveniles (J2). Put plainly: M. incognita assay with previously hatched J2 immersed in test solutions. The following applies: in vivo. The protocol:
as §2
as §3, with “The five compounds tested were 6b, 6f, 6g, 6i, and 7k, high and low rates.” left out
Each polystyrene culture plate was covered with a plastic adhesive sheet (Excel Scientific, Inc., Victorville, Calif., USA) and incubated at 25° C. […] In egg immersion assays, total numbers of hatched J2, and numbers of mobile and immobile J2, were counted after 2 and 7 days incubation in the test compounds. In the first assay with previously hatched J2, the numbers of mobile and immobile J2 were counted after 1 and 2 days incubation, the treatments removed and replaced with a SDW rinse, and 2 days later the mobile vs. immobile J2 counted again. […]
Data from the M. incognita assays were analyzed with the statistical package JMP 11.2.0 (SAS Institute, Cary, N.C., USA). Differences among numbers of hatched J2 in each treatment, and among percentage of mobile J2 per treatment (number mobile J2/total J2×100), were determined by the ANOVA, and means were compared using Tukey Kramer's adjustment for multiple comparisons (P<0.05). […]

Assay [6] relates to Cryptococcus neoformans ATCC 90113. Put plainly: Antimicrobial microplate assay (modified CLSI). It counts as cell-based. The following applies: Cr. neoformans. The procedure:
(§4) All organisms were obtained from the American Type Culture Collection (ATCC; Manassas, Va., USA) and included the fungi Cryptococcus neoformans ATCC 90113 and the bacteria Staphylococcus aureus ATCC 29213, methicillin-resistant S. aureus ATCC 33591 (MRSA), and Mycobacterium intracellulare ATCC 23068. All organisms were tested using modified versions of the CLSI (formerly NCCLS) methods. For all organisms excluding My. intracellulare, optical density was used to monitor growth. Medium supplemented with 5% AlamarBlue® (BioSource International, Camarillo, Calif., USA) was utilized for growth detection of My. intracellulare. Samples (dissolved in DMSO) were serially diluted in 20% DMSO/saline and transferred (10 μl) in duplicate to 96-well flat-bottom microplates. Inocula were prepared by correcting the OD630 of microbe suspensions in Sabouraud Dextrose for Cr. neoformans, cation-adjusted Mueller-Hinton (Difco) at pH 7.3 for Staphylococcus spp., and 5% AlamarBlue® (BioSource International) in Middlebrook 7H9 broth with OADC enrichment, pH=7.0 for My. intracellulare, to afford an assay volume of 200 μl and final target inocula of: Cr. neoformans.: b 1.5×10^3, My. intracellulare: 2.0×10^6, and Staphylococcus spp.,: 5.0×10^5 CFU/ml. Final sample test concentrations were 1/100th the DMSO stock concentration. Drug controls (Ciprofloxacin (ICN Biomedicals, Ohio, USA) for bacteria and Amphotericin B (ICN Biomedicals) for fungi) were included in each assay. All organisms were read at either 530 nm using the Biotek Powerwave XS plate reader (Bio-Tek Instruments, VT) or 544ex1590em (My. intracellulare) using the Polarstar Galaxy Plate Reader (BMG LabTechnologies, Germany) before and after incubation: Staphylococcus spp. at 35° C. for 16-20 h, Cr. neoformans at 35° C. for 70-74 h, and My. intracellulare at 37° C. and 10% CO2 for 70-74 h. IC50 Values (concentrations that afford 50% inhibition relative to controls) werecalculated using XLfit 4.2 software (IDBS, Alameda, Calif.) using fit model 201.

For assay [7], the system named is Staphylococcus aureus ATCC 29213. Put plainly: Antimicrobial microplate assay (modified CLSI). It counts as cell-based. The following applies: ATCC29213, S. aureus. The protocol: as §4, with “Drug controls (Ciprofloxacin (ICN Biomedicals, Ohio, USA) for bacteria and Amphotericin B (ICN Biomedicals) for fungi) were included in each assay.” left out
The test system of assay [8] is methicillin-resistant S. aureus ATCC 33591 (MRSA). Description: Antimicrobial microplate assay (modified CLSI). It counts as cell-based. To be noted: Staphylococcus aureus. The protocol:
as §4, with “Drug controls (Ciprofloxacin (ICN Biomedicals, Ohio, USA) for bacteria and Amphotericin B (ICN Biomedicals) for fungi) were included in each assay.” left out

Assay [9] has as its system Mycobacterium intracellulare ATCC 23068. Description: Antimicrobial microplate assay (modified CLSI, AlamarBlue). To be noted: ATCC23068, My. intracellulare. It counts as cell-based. The protocol:
as §4, with “Drug controls (Ciprofloxacin (ICN Biomedicals, Ohio, USA) for bacteria and Amphotericin B (ICN Biomedicals) for fungi) were included in each assay.” left out
(In general: Alamar Blue is a resazurin reagent that responds to reducing activity.)

Where [10] appears, read: Cryptococcus neoformans, ATCC90113.

In brackets after ≈: the same amount, converted by molar mass.

With `CO/C=C(/C(=O)OC)c1ccccc1Oc1cc(Oc2ccccc2C#N)ncn1` [Azoxystrobin, azoxystrobin], the figures for the zones of inhibition in assay [1], in assay [2] and in assay [3] were 15 mm, 17.5 mm and 17.5 mm, respectively.
Regarding `COc1cc(/C=C/c2ccc(Cl)c(Cl)c2)cc(OC)c1C` [Compound 6i, (E)-1,3-dimethoxy-5-(3,4-dichlorostyryl)-2-methylbenzene], the “Percent mobile J2, assay 2” value in assay [4] (2 days, high rate (166.7 μg/ml)) was 100.0%; in assay [4] (2 days, low rate (83.3 μg/ml)), 71.0%; in [4] (7 days, high rate (166.7 μg/ml)) it was 93.2%; in [4] (7 days, low rate (83.3 μg/ml)), 87.7%. For the same molecule, the “effect on mobility of J2 hatched from eggs immersed in solutions (in words)” value in assay [4] (in vivo) is recorded as “some suppressive effect on mobility”. Also, in assay [5], the “effect on mobility of J2 previously hatched in water and immersed directly (in words)” value is “only 6g and 7k had an effect on J2 mobility”.
Turning to `COc1cccc(/C=C/c2cc(OC)c(C)c(OC)c2)c1` [Compound 6b, (E)-1,3-dimethoxy-5-(3-methoxystyryl)-2-methylbenzene], in assay [5], the “effect on mobility of J2 previously hatched in water and immersed directly (in words)” value was “only 6g and 7k had an effect on J2 mobility”.
What is called IC50 is the concentration at which inhibition is half-maximal. A higher IC50 goes with weaker potency in that assay. As usually defined, the MIC is the lowest concentration that inhibits growth of the organism. A higher MIC goes with a less susceptible organism. Regarding `COc1cc(/C=C/c2ccc(O)cc2)cc(OC)c1C` [Compound 16, (E)-4-(3,5-dimethoxy-4-methylstyryl)phenol], the IC50 is 5.22 µM in [6] (setting [10]), 20.4 µM in [7], 43.7 µM in assay [8] and 34 µM in assay [9]. In addition, the MIC in assay [6] (setting [10]) is 9.25 µM (≈ 2.5 µg/mL); in assay [7], 74 µM (≈ 20 µg/mL); in [8] it was 74 µM (≈ 20 µg/mL); in assay [9], 74 µM (≈ 20 µg/mL).
With `CCCCNC(=O)n1c(NC(=O)OC)nc2ccccc21` [Benomyl, benomyl], the zone of inhibition at 2000 µM in [1] was 17 mm; in assay [2] it was 20 mm; in [3] it was 20 mm.
Turning to `O=C1C2CC=CCC2C(=O)N1SC(Cl)(Cl)Cl` (centres unmarked) [Captan, captan], the zone of inhibition at 2000 µM was determined as 11.5 mm in assay [1], 18.5 mm in [2] and 18.5 mm in [3].
For `Cc1cc(C2CC2)nc(Nc2ccccc2)n1` [Cyprodinil, cyprodinil], the zone of inhibition at 2000 µM in assay [1] was determined as 18 mm; in [2], 21.5 mm; in [3], 21.5 mm.
In the case of `C[C@@H]1[C@H](O)[C@@H](C)/C=C/C=C/C=C/C=C/C=C/C=C/C=C/[C@H](O[C@@H]2O[C@H](C)[C@@H](O)[C@H](N)[C@@H]2O)C[C@@H]2O[C@](O)(C[C@@H](O)C[C@@H](O)[C@H](O)CC[C@@H](O)C[C@@H](O)CC(=O)O[C@H]1C)C[C@H](O)[C@H]2C(=O)O` [Amphotericin B, reference compound], in assay [6], the IC50 stood at 0.698 µM and the MIC was 1.353 µM (≈ 1.25 µg/mL).
